Results as given in a melting point compilation (Tetko et al.).

| melting point | SMILES |
| --- | --- |
| 177 to 179 °C | C=CCn1c(=O)c2ccccc2n2c(S)nnc12 |
| 154 to 156 °C | CCOC(=O)/C(C#N)=C\Nc1ccc(Cl)cc1F |
| 149 to 151 °C | CC1=CC=CC(=C2Nc3cc(F)ccc3N2C2CC2)C1=N |
| 101 to 103 °C | O=[N+]([O-])c1ccc(F)c(-n2cnnn2)c1 |
| 137 to 139 °C | Nc1cc(Br)cnc1Br |
| 79 to 81 °C | CCC1(O)CCC(N)CC1 (stereo unspecified) |
| 79 to 81 °C | COc1cc(CN)c2ccccc2n1 |
| 114 to 116 °C | COc1ccc(C(=O)N2CCN(C)CC2)cc1N |
| 192 to 194 °C | Cc1ccc(S(N)(=O)=O)cc1C(N)=O |
| 89 to 91 °C | O=S1(=O)CCCN1c1ccc(Br)cc1F |
| 157 to 159 °C | O=C(O)c1cccc(S(=O)(=O)N2CCCC2)c1 |
| 97 to 99 °C | Fc1ccc2ccc(Cl)nc2c1 |
| 78 to 80 °C | Cc1cc(OS(C)(=O)=O)nc2c1cnn2C(C)C |
| 203 to 205 °C | O=C(O)c1cc2ccccc2cc1NS(=O)(=O)c1ccc(F)cc1 |
| 259 to 261 °C | Cc1sc2nc(CCl)[nH]c(=O)c2c1-c1ccccc1 |
| 148 to 152 °C | CC(C)(C)NC(=O)CN1CCN(CC(N)=S)CC1 |
| 188 to 190 °C | Cc1ccccc1-c1nnc(S)o1 |
| 128 to 130 °C | O=C(CCl)/N=c1\sccn1Cc1ccc(Cl)cc1Cl |
| 113 to 115 °C | Cc1cc(C(C)(C)C)cc(C)c1S(=O)(=O)Cl |
| 129 to 131 °C | O=C(O)c1cocn1 |
| 67 to 69 °C | NCc1cccc(S(=O)(=O)N2CCCCC2)c1 |
| 85 to 87 °C | COC(=O)C1CCC(C(=O)O)CC1 (stereo unspecified) |
| 188 to 190 °C | Nc1ccc2[nH]c(-c3cc(F)ccc3F)nc2c1 |
| 105 to 107 °C | Nc1nonc1-c1ccc(Cl)cc1Cl |
| 209 to 211 °C | Cc1oc(S(N)(=O)=O)cc1C(=O)O |
| 159 to 161 °C | O=C(O)c1cn(-c2cccc([N+](=O)[O-])c2)nn1 |
| 98 to 100 °C | O=Cc1cccc(OCCC(=O)O)c1 |
| 251 to 253 °C | O=C(O)c1ccc(-c2ccc([N+](=O)[O-])cc2Cl)o1 |

| melting point | SMILES |
| --- | --- |
| 112 to 114 °C | Nc1ncn(Cc2cccnc2)n1 |
| 184 to 186 °C | Cc1c(C(=O)O)nnn1-c1cccc(Br)c1 |
| 164 to 166 °C | Nc1ccc(S(=O)(=O)N2CCCC2)cc1 |
| 119 to 121 °C | Cc1ccc(OCCC(=O)O)c(Br)c1 |
| 169 to 171 °C | N#Cc1ccc(Cn2cnc(N)n2)cc1 |
| 109 to 111 °C | O=C(O)CCCc1csc2ccccc12 |
| 91 to 93 °C | Cc1cccc([N+](=O)[O-])c1S(=O)(=O)Cl |
| 69 to 71 °C | Cc1cc(C#N)ccc1N1CC2CCC1C2 (stereo unspecified) |
| 218 to 220 °C | Cc1cc(C(=O)O)c(O)c(S(N)(=O)=O)c1 |
| 140 to 142 °C | NC(=S)CCN1CCOC1=O |
| 71 to 73 °C | OCC1NCCc2ccccc21 (stereo unspecified) |
| 42 to 46 °C | Clc1csc(Cl)n1 |
| 107 to 111 °C | NC(=S)COc1ccc(Cl)cc1 |
| 151 to 153 °C | O=c1[nH]nnn1-c1cccs1 |
| 174 to 176 °C | Cc1ccc2nc(C)c(C(=O)O)cc2c1 |
| 152 to 156 °C | CC(=O)NC(C)c1ccc(C(=O)CCl)cc1 (stereo unspecified) |
| 132 to 134 °C | NC1CCN(c2ccc(C(F)(F)F)cc2)C1=O (stereo unspecified) |
| 89 to 91 °C | NCc1cccnc1O |
| 166 to 168 °C | O=C(O)CCC(=O)N1CCN(c2ncccn2)CC1 |
| 180 to 182 °C | CC1CCc2[nH]c(=O)sc2C1 (stereo unspecified) |
| 345 to 347 °C | O=C(O)c1ccc(Nc2ncnc3ccccc23)cc1 |
| 174 to 176 °C | O=C(O)CCNS(=O)(=O)c1cccnc1Cl |
| 171 to 173 °C | COc1ccc(C)cc1N1CC(C(=O)O)CC1=O (stereo unspecified) |
| 116 to 118 °C | Cn1cc(CC2CC(=O)NC2=O)cn1 (stereo unspecified) |
| 115 to 117 °C | O=C(O)C1CSCN1C(=O)C1CCC1 (stereo unspecified) |
| 210 to 212 °C | O=C(O)C1(C(F)(F)F)CCN(Cc2ccccc2)C1 (stereo unspecified) |
| 193 to 195 °C | CCc1c(C)sc2[nH]c(COCC(=O)O)nc(=O)c12 |

| SMILES | melting point |
| --- | --- |
| Cc1nn(Cc2cccc(Br)c2)cc1C(=O)O | 164 to 166 °C |
